Assay results reported in patent US20060088902A1, “Methods and materials for the identification of antifungal substrates in filamentous fungi” (priority 2001, published 2006).

How the values were obtained:
Type in all cases: cell-based, Aspergillus niger
agsA promoter = assay: PagsA-AmdS reporter strain growth on acetamide plates; details: 0.5 mg/ml CFW added to the plates
Excerpt: Aspergillus niger grows poorly on acetamide as a nitrogen source. When additional copies of the amdS gene, encoding a acetamidase of A. nidulans are introduced, A. niger can grown on acetamide plates and the amdS gene can therefore be used as a selectable marker (Kelly and Hynes, 1985). The coding region of the amdS gene was fused to the agsA promoter sequence. Both the relatively low basal expression of the agsA gene and the high level of induction after CFW stress (over 20-fold) makes the agsA promoter a good candidate for use as a reporter. The reporter construct further comprises the amdS gene (A. nidulans) with its own terminator. For targeting to the pyrG locus of the A. niger strain AB4.1 (pyrG^−) the pyrG* gene is included in the construct (cf. Van Gorcum et al., 1988). […]
The construct was transformed to strain AB4.1 (a pyrG negative strain derived from N402) and transformants were selected on the presence of an intact pyrG gene. Wild type strain N402 and purified transformants (ABRD1.1-1.25 and ABRD2.1-2.15) were analysed were grown on acetamide and acrylamide plates. […] The majority of the transformants were analysed by Southern blotting to confirm correct integration of the construct.

gfaA = assay: Northern blot analysis of gfaA expression in CFW stressed germlings; details: germlings treated with 200 μg/ml CFW; RNA 1, 2 and 4 hours after addition; vs untreated germlings
Procedure: (§1) To identify genes that are induced upon cell wall stress, we have first investigated which cell wall perturbing compound was suited for this purpose. Finally, we used the antifungal compound Calcofluor White (CFW) to induce cell wall stress. […] Because of the defects in cell wall assembly, the cell wall is weakened en swells from internal pressure. Polarized growth is resumed after 2-4 hours. Both the effect of hyphal tip swelling and the time that is required to resume growth are dependent on the concentration of CFW (FIG. 3). To identify genes that are induced upon CFW treatment, mRNA has been isolated from germling that have been treated with or without CFW for various time intervals. […] These germlings were than treated with 200 μg/ml CFW. After 1, 2 and 4 hours after addition of CFW total RNA was isolated and used in Northern blot experiments (see FIG. 4). As a control, total RNA was isolated from germlings that were not treated with CFW. Several probes encoding putative proteins involved in cell wall biosynthesis have been analysed and quantified.
(§2) The highest induction was found for agsA. Thus, these genes are regulated by the promoter sequences as a response to the induced cell wall stress. Such promoters are suitable candidates for use as reporters. […] No signal could be detected for the other ags homologs.

fksA = assay: Northern blot analysis of fksA expression in CFW stressed germlings; details: in the presence of CFW (200 μg/ml)
Procedure: as §1, §2

[1] = tested on: germinated spores of A. niger; assay: Effect of CFW addition on growth of germlings
Procedure: FIG. 3: Effect of CFW addition on growth of germlings. Germinated spores of A. niger were treated with increasing concentrations of CFW. Both the extend of hyphal tip swelling and the time required to resume growth is dependent on the concentration of CFW.
as §1

O=S(=O)(O)c1cc(Nc2nc(Nc3ccccc3)nc(N(CCO)CCO)n2)ccc1/C=C/c1ccc(Nc2nc(Nc3ccccc3)nc(N(CCO)CCO)n2)cc1S(=O)(=O)O [CFW, Calcofluor White]
growth of PagsA-AmdS transformants on acetamide plates (agsA promoter): resulted in growth (and sporulation) for the majority of the transformants | increase in gfaA mRNA level (gfaA): 4 fold | expression level of fksA (fksA): not significantly altered | time until polarized growth is resumed ([1]; after CFW treatment, dependent on CFW concentration): 2 to 4 h | hyphal morphology of germinating spores ([1]; treatment of germinating spores with CFW, concentration dependent): formation of swollen hyphe
